{
  "source": "patent US8377883B2",
  "about": "“Peptide for anti-angiogenesis and use thereof” (Beijing Institute for Cancer Research, priority 2006, dated 2013)",
  "key": {"[1]": {"tested_on": "human umbilical vein endothelial cells (HUVECs)", "test": "Microfilament skeleton of HUVECs by confocal microscope", "format": "cell-based", "settings": "10, 25, 100 μg/ml; 48, 72, 96 hours", "protocol": "Human umbilical cord samples (obtained from Beijing Obstetrics & Gynecology Hospital) was digested with 0.1% collagenase I (available from GIBCO BRL company), followed by a centrifugation (1000 rpm, 10 minutes) to collect human umbilical vein endothelial cells (HUVECs). After suspended in 20% FCS/RPMI1640, the cells were transferred into plastic bottles for culture in CO2 incubator (37° C., 5% CO2). Twelve hours later, unattached cells were discarded by changing medium, and then the remaining cells were cultured conventionally with the medium changed every 3 days. The cultured HUVECs were digested with 0.04% trypsin-EDTA, and inoculated into 24-well plate at 2×10^4 cells/well; and the vehicle (PBS) and FpAT (10 μg/ml, 25 μg/ml, 100 μg/ml) were added separately, with 3 parallel wells per group. […] After washing twice with PBS, Hoechst was added to stain nucleus. After washed once with PBS, the slide was mounted with mounting solution, and stored at 4° C. in the dark. The change of cytoskeleton was observed employing a confocal microscope."}, "[2]": {"tested_on": "human umbilical vein endothelial cells (HUVECs)", "test": "Apoptosis of HUVECs (flow cytometry, DNA Ladder, RT-PCR, Western blotting)", "format": "cell-based", "settings": "50 μg/ml PBS, 96 hours", "protocol": "Human umbilical cord samples (obtained from Beijing Obstetrics & Gynecology Hospital) was digested with 0.1% collagenase I (available from GIBCO BRL company), followed by a centrifugation (1000 rpm, 10 minutes) to collect human umbilical vein endothelial cells (HUVECs). After suspended in 20% FCS/RPMI1640, the cells were transferred into plastic bottles for culture in CO2 incubator (37° C., 5% CO2). Twelve hours later, unattached cells were discarded by changing medium, and then the remaining cells were cultured conventionally with the medium changed every 3 days. The vehicle (PBS) and FpAT (50 μg/ml PBS) were added separately, and the cells were collected at 96 hours. Flow Cytometry: the cells were digested with 0.04% trypsin-EDTA, collected and washed 3 times with PBS; the cells were suspended by adding 200 μl PBS and aspirated gently to avoid formation of cell mass. 800 μl cold absolute alcohol was added, and then the cells was fixed at 4° C. overnight; and after a centrifugation at 1000×g for 5 min at 4° C., and the supernatant were discarded. The cells were washed twice with PBS, re-suspended with 200 μl PBS containing RNaseA at a concentration of 1 mg/ml, and incubated at 37° C. for 30 minutes. PI staining solution (final concentration of 50 μg/ml) was added, and the well mixed cells were subjected to a reaction at 4° C. for 30 minutes in the dark. The detection was performed on a flow cytometer. DNA Ladder analysis: the cells differently treated (PBS and FpAT) were collected by a centrifugation at 1000 rpm for 5 minutes, and the cells were lysed with lysis solution (10 mM Tris-HCl, 5 mM EDTA, 1% Triton-X 100, 10 mM NaCl, 100 μg/ml protease K), and aspirated repeatedly to cut viscous genomic DNA, which theoretically generates DNA fragments in a uniform size of 20 to 30 kb; phenols and chloroform were used to extract, and after precipitated with absolute ethanol, the total DNA were dissolved in TE or water, and treated with Rnase A at 37° C. for 1˜2 hours. Five microliters was taken for an electrophoresis on 1.8% agarose gel. […]"}, "[3]": {"tested_on": "mice liver cancer H22 cells", "test": "Tumor suppression by FpAT and derivative peptides in liver cancer H22 tumor-bearing mouse model (Example 14)", "format": "in vivo, mice of Kunming strain", "settings": "peptides 50 μg/100 μl PBS/injection, angulus oculi medialis vein daily, 7 times; CTX 80 mg/KG; tumors weighed", "protocol": "Ninety 5-week old mice of Kunming strain purchased from Animal Center Of Chinese Academy Of Medical Sciences were inoculated subcutaneously in forelimb with mice liver cancer H22 cells (National Institute for the Control of Pharmaceutical and Biological Products) (5×10^6/100 μl/mouse). On the next day after inoculation, each kind of inoculated cells were divided randomly into […] with 10 mice per group. FpAT (50 μg/100 μl PBS/injection) and 7 kinds of derivative peptides thereof (see Table 5 below for detailed sequence):FpAT-N3d, FpAT-N6d, FpAT-N9d, FpAT-C3d, FpAT-C6d, FpAT-C9d, FpAT-N5d-C4d, and vehicle control (PBS:100 μl/injection) were injected in angulus oculi medialis vein, with CTX (cyclophosphamide) (80 mg/KG) as positive control daily, 7 times in total. The mice were sacrificed by dislocating the neck on the next day after administration was stopped, and the tumors were taken and weighed for a statistical analysis."}},
  "data": [
    {"substance": "H2N-Asp-Ser-Gly-Glu-Gly-Asp-Phe-Leu-Ala-Glu-Gly-Gly-Gly-Val-Arg-COOH (H-DSGEGDFLAEGGGVR-OH; listed as Homo sapiens) [FpAT, fibrinopeptide A truncated, carboxyl terminal 15 amino acids of fibrinopeptide A]", "values": [
      {"measurement": "microfilament disassembly in HUVECs", "setting": "[1]", "value": "can induce the microfilament disassembly"},
      {"measurement": "DNA Ladder in total DNA of HUVECs", "setting": "[2]", "value": "presence of plenty of DNA Ladder"},
      {"measurement": "apoptosis of HUVECs by flow cytometry", "setting": "[2]; PI staining", "value": "presence of an evidence apoptosis peak"},
      {"measurement": "effect on cell cycle of HUVECs", "setting": "[2]; flow cytometry", "value": "no remarkable effects on cell cycle"},
      {"measurement": "tumor suppressing rate", "setting": "[3]", "value": 65.4, "unit": "%"}
    ]}
  ]
}
